Ends that are not written are not given here.
What was measured:
HCoV-229E = details: 24 h
[1] = Cytotoxicity (CC50) of tested peptides; details: African green monkey, Vero E6 cells
[2] = biological target: HCoV-229E spike (S) protein (human coronavirus 229E, UniProt P15423); assay: cell-based or functional assay

| Molecule | IC50 (HCoV-229E) [µM] | Selectivity Index (HCoV-229E) | CC50 [1] [µM] | IC50, plaque reduction test against HCoV-229E [2] [µM] |
| --- | --- | --- | --- | --- |
| CC[C@H](C)[C@H](NC(=O)CNC(=O)[C@H](CO)NC(=O)[C@@H](NC(=O)[C@H](CC(=O)O)NC(=O)CNC(=O)[C@H](CC(C)C)NC(=O)[C@@H](NC(=O)[C@@H](N)Cc1c[nH]cn1)C(C)C)[C@@H](C)CC)C(=O)N[C@@H](CC(N)=O)C(=O)N[C@@H](C)C(=O)N[C@@H](CO)C(=O)N[C@H](C(=O)N[C@H](C(=O)N[C@@H](CCC(N)=O)C(=O)N[C@H](C(=O)N[C@@H](CCC(N)=O)C(=O)N[C@@H](CCCCN)C(=O)N[C@@H](CCC(=O)O)C(=O)N[C@H](C(=O)N[C@@H](CC(=O)O)C(=O)N[C@@H](CCCNC(=N)N)C(=O)N[C@@H](CC(C)C)C(=O)N[C@@H](CC(N)=O)C(=O)N[C@@H](CCC(=O)O)C(=O)N[C@H](C(=O)N[C@@H](C)C(=O)N[C@@H](CCCCN)C(=O)N[C@@H](CC(N)=O)C(=O)N[C@@H](CC(C)C)C(=O)N[C@@H](Cc1c[nH]cn1)C(=O)N[C@@H](CCC(=O)O)C(=O)N[C@@H](CO)C(=O)N[C@@H](CC(C)C)C(=O)N[C@H](C(=O)N[C@@H](Cc1ccc(O)cc1)C(=O)N[C@@H](CC(C)C)C(=O)N[C@@H](CCC(N)=O)C(=O)N[C@@H](CCC(=O)O)C(=O)O)[C@@H](C)CC)C(C)C)[C@@H](C)CC)[C@@H](C)CC)C(C)C)C(C)C [Peptide 121] | 14.2 | 13.06 | 251 | – |
| HRLRQIRGIRARVVQIQKEIWRLNEVAKLLNESLIYLQE [Peptide 125] | 14.5 | 17.56 | 255 | – |
| HRLRQIRGIRARVVQIQKEIWRLNEVAKLLNESLIYLQE [Peptide 125] | – | – | – | 14.5 |
| HVLGDISGINASVVQIQKEIDRLNEVAKNLHESLIYLQE [Peptide 121] | – | – | – | 14.2 |

— patent publication US11939354B1, “Fusion peptide inhibitors of human coronavirus 229E” (KING FAISAL UNIVERSITY, priority 2023, dated 2024)
